Where “and” joins values, the source holds several entries; their conditions need not be identical. Identical values can stand only once.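 Values below derive from 48-hour exposures of cells grown in 96-well plates, with endpoints linearly interpolated between the two concentrations bracketing the appropriate inhibition level. Here, GI50 denotes the concentration required for 50% inhibition of growth. TGI is the concentration that stops growth completely.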
How the values were obtained:
Assay in all cases: NCI-60 cell line screen, 48 h
RPMI-8226 leukemia = system: RPMI-8226 leukemia
NCI/ADR-RES ovarian = system: NCI/ADR-RES ovarian
MALME-3M melanoma = system: MALME-3M melanoma
HCT-15 colon = system: HCT-15 colon
M14 melanoma = system: M14 melanoma
MDA-MB-231 breast = system: MDA-MB-231 breast
DMS 273 small cell lung = system: DMS 273 small cell lung
DMS 114 small cell lung = system: DMS 114 small cell lung
KM20L2 colon = system: KM20L2 colon
M19-MEL melanoma = system: M19-MEL melanoma

CN(C)CC/C=C1\c2ccccc2Sc2ccc(Cl)cc21
GI50 (RPMI-8226 leukemia): 2.69 µM
TGI (RPMI-8226 leukemia): 9.19 µM and 17.2 µM
GI50 (NCI/ADR-RES ovarian): 2.42 µM
TGI (NCI/ADR-RES ovarian): 8.24 µM and 30.8 µM
GI50 (MALME-3M melanoma): 1.71 µM
TGI (MALME-3M melanoma): 3.47 µM and 28 µM
GI50 (HCT-15 colon): 3.79 µM
TGI (HCT-15 colon): 14 µM and 30.6 µM
GI50 (M14 melanoma): 1.87 µM
TGI (M14 melanoma): 3.58 µM and 11.4 µM
GI50 (MDA-MB-231 breast): 2.12 µM
TGI (MDA-MB-231 breast): 9.32 µM and 28.3 µM

CN1C(=O)n2c(nc3ccccc32)C(N=[N+]=[N-])(N=[N+]=[N-])C1=O (centres undefined)
TGI (DMS 273 small cell lung): > 100 µM
TGI (RPMI-8226 leukemia): > 100 µM
TGI (MALME-3M melanoma): > 100 µM
TGI (DMS 114 small cell lung): > 100 µM
TGI (KM20L2 colon): > 100 µM
TGI (M19-MEL melanoma): > 100 µM
TGI (HCT-15 colon): > 100 µM
TGI (M14 melanoma): > 100 µM

COc1cc(C(=O)C/C(CCC(=O)Nc2ccccc2[N+](=O)[O-])=N\NC(=O)C(N)=O)ccc1O
TGI (DMS 273 small cell lung): > 100 µM
TGI (DMS 114 small cell lung): > 100 µM
TGI (KM20L2 colon): > 100 µM
TGI (M19-MEL melanoma): > 100 µM
TGI (HCT-15 colon): > 100 µM
TGI (M14 melanoma): > 100 µM

CCCCCCCCCOC(=S)NC
TGI (DMS 273 small cell lung): 33.6 µM
TGI (RPMI-8226 leukemia): 48.4 µM
TGI (MALME-3M melanoma): 43.8 µM
TGI (KM20L2 colon): 32.5 µM
TGI (M19-MEL melanoma): 53.9 µM
TGI (HCT-15 colon): 36.1 µM
TGI (M14 melanoma): 45.8 µM

CCOC(=O)/C(=C/c1ccc(OC)c(OC)c1)C(=O)c1ccccc1
TGI (RPMI-8226 leukemia): 39.1 µM
TGI (MALME-3M melanoma): > 100 µM
TGI (DMS 114 small cell lung): 32 µM
TGI (KM20L2 colon): 38.7 µM
TGI (M19-MEL melanoma): 44.1 µM
TGI (HCT-15 colon): 42 µM
TGI (M14 melanoma): 28.9 µM

O=c1ncc(-c2ccc(C(F)(F)F)cc2)c(NC2CCCCCC2)[nH]1
GI50 (RPMI-8226 leukemia): 15.8 µM
TGI (RPMI-8226 leukemia): 39.6 µM
GI50 (NCI/ADR-RES ovarian): 25.2 µM
TGI (NCI/ADR-RES ovarian): 68.2 µM
GI50 (MALME-3M melanoma): 17.2 µM
TGI (MALME-3M melanoma): 33.7 µM
GI50 (HCT-15 colon): 22.1 µM
TGI (HCT-15 colon): 64.6 µM
GI50 (M14 melanoma): 20.4 µM
TGI (M14 melanoma): 45.8 µM
GI50 (MDA-MB-231 breast): 16.6 µM
TGI (MDA-MB-231 breast): 38.1 µM

COc1cc2c(c(OC)c1OC)-c1ccc([O-])c(=O)cc1[C@@H](NC(C)=O)CC2.COc1cc2c(c(OC)c1OC)-c1ccc([O-])c(=O)cc1[C@@H](NC(C)=O)CC2.[Cu+2]
GI50 (RPMI-8226 leukemia): 3.17 µM
TGI (RPMI-8226 leukemia): 38.2 µM
GI50 (NCI/ADR-RES ovarian): 6.16 µM
TGI (NCI/ADR-RES ovarian): 51.8 µM
GI50 (MALME-3M melanoma): 15 µM
TGI (MALME-3M melanoma): > 100 µM
GI50 (HCT-15 colon): 3.73 µM
TGI (HCT-15 colon): > 100 µM
GI50 (M14 melanoma): 2.79 µM
TGI (M14 melanoma): > 100 µM
GI50 (MDA-MB-231 breast): 3.84 µM
TGI (MDA-MB-231 breast): > 100 µM

O=C(O)C1C2C=CC(O2)C1C(=O)Nc1ccccc1 (centres undefined)
TGI (RPMI-8226 leukemia): > 100 µM
TGI (NCI/ADR-RES ovarian): > 100 µM
TGI (MALME-3M melanoma): > 100 µM
TGI (HCT-15 colon): > 100 µM
TGI (M14 melanoma): > 100 µM
TGI (MDA-MB-231 breast): > 100 µM

COc1ccc(-c2cc(-c3ccc(Nc4nc(Nc5ccc(Cl)cc5)nc(Nc5ccc(Cl)cc5)n4)cc3)no2)cc1
GI50 (RPMI-8226 leukemia): 13.1 µM
TGI (RPMI-8226 leukemia): 48.2 µM
GI50 (NCI/ADR-RES ovarian): 16.3 µM
TGI (NCI/ADR-RES ovarian): 53.9 µM
GI50 (MALME-3M melanoma): 20.5 µM
TGI (MALME-3M melanoma): 49 µM
GI50 (HCT-15 colon): 12.4 µM
TGI (HCT-15 colon): > 100 µM
GI50 (M14 melanoma): 16.2 µM
TGI (M14 melanoma): 53.7 µM
GI50 (MDA-MB-231 breast): 16.4 µM
TGI (MDA-MB-231 breast): > 100 µM

CCCCCCCCCCCCCCCCC1=CC(=O)C=C(OC)C1=O
TGI (RPMI-8226 leukemia): > 100 µM
TGI (NCI/ADR-RES ovarian): > 100 µM
TGI (MALME-3M melanoma): > 100 µM
TGI (HCT-15 colon): > 100 µM
TGI (M14 melanoma): > 100 µM
TGI (MDA-MB-231 breast): > 100 µM

Nc1nc(N)c2nc(CNc3ccc(C(=O)CC(CCC(=O)O)C(=O)O)cc3)cnc2n1 (centres undefined)
TGI (RPMI-8226 leukemia): > 100 µM
GI50 (NCI/ADR-RES ovarian): 0.224 µM
TGI (NCI/ADR-RES ovarian): > 100 µM
GI50 (MALME-3M melanoma): 1.43 µM
TGI (MALME-3M melanoma): > 100 µM
GI50 (HCT-15 colon): 0.168 µM
TGI (HCT-15 colon): > 100 µM
GI50 (M14 melanoma): 0.202 µM
TGI (M14 melanoma): > 100 µM
GI50 (MDA-MB-231 breast): > 100 µM
TGI (MDA-MB-231 breast): > 100 µM

COc1ccc(-c2coc3ncnc(N)c23)cc1
GI50 (RPMI-8226 leukemia): > 25 µM
TGI (RPMI-8226 leukemia): > 25 µM
GI50 (NCI/ADR-RES ovarian): > 25 µM
TGI (NCI/ADR-RES ovarian): > 25 µM
GI50 (MALME-3M melanoma): > 25 µM
TGI (MALME-3M melanoma): > 25 µM
GI50 (HCT-15 colon): > 25 µM
TGI (HCT-15 colon): > 25 µM
GI50 (M14 melanoma): > 25 µM
TGI (M14 melanoma): > 25 µM
GI50 (MDA-MB-231 breast): > 25 µM
TGI (MDA-MB-231 breast): > 25 µM

O=c1c(O)c(-c2ccc(O)c(O)c2)oc2cc(O)ccc12
TGI (DMS 273 small cell lung): 28.2 µM
TGI (RPMI-8226 leukemia): > 79.9 µM
TGI (MALME-3M melanoma): > 77 µM
TGI (DMS 114 small cell lung): 55.1 µM
TGI (KM20L2 colon): 73.2 µM
TGI (M19-MEL melanoma): > 88.1 µM
TGI (HCT-15 colon): 98.4 µM
TGI (M14 melanoma): 44 µM

Cc1cc(N(CCC#N)CCC#N)ccc1/C=C1/CN(N2C(=O)/C(=C/c3ccc(N(CCC#N)CCC#N)cc3C)N=C2c2ccccc2)C(c2ccccc2)=N1
TGI (DMS 273 small cell lung): > 100 µM
TGI (MALME-3M melanoma): > 100 µM
TGI (DMS 114 small cell lung): > 100 µM
TGI (KM20L2 colon): > 100 µM
TGI (M19-MEL melanoma): > 100 µM
TGI (HCT-15 colon): > 100 µM
TGI (M14 melanoma): > 100 µM

O=c1[nH]cnc2c(C3OC(CO)C(O)C3O)[nH]nc12 (centres undefined)
TGI (RPMI-8226 leukemia): > 100 µM
TGI (NCI/ADR-RES ovarian): > 100 µM
TGI (MALME-3M melanoma): > 100 µM
TGI (HCT-15 colon): > 100 µM
TGI (M14 melanoma): > 100 µM
TGI (MDA-MB-231 breast): > 100 µM

O=S(=O)(NCCNc1cc(-c2cn(-c3ccccc3)nc2-c2cccc(O)c2)ccn1)c1ccc(C(F)(F)F)cc1
GI50 (RPMI-8226 leukemia): 2.77 µM
TGI (RPMI-8226 leukemia): 7.85 µM
GI50 (NCI/ADR-RES ovarian): 3.21 µM
TGI (NCI/ADR-RES ovarian): 16.6 µM
GI50 (MALME-3M melanoma): 1.68 µM
TGI (MALME-3M melanoma): 4.57 µM
GI50 (HCT-15 colon): 2.34 µM
TGI (HCT-15 colon): 11 µM
GI50 (M14 melanoma): 2.12 µM
TGI (M14 melanoma): 7.17 µM
GI50 (MDA-MB-231 breast): 2.12 µM
TGI (MDA-MB-231 breast): 4.72 µM

O=c1oc2ccc(Cl)cc2c(=O)n1-c1ccc(Cl)cc1F
GI50 (RPMI-8226 leukemia): 0.28 µM
TGI (RPMI-8226 leukemia): 1.09 µM
GI50 (NCI/ADR-RES ovarian): 0.532 µM
TGI (NCI/ADR-RES ovarian): 3.79 µM
GI50 (MALME-3M melanoma): 0.313 µM
TGI (MALME-3M melanoma): 1.55 µM
GI50 (HCT-15 colon): 0.791 µM
TGI (HCT-15 colon): 6.69 µM
GI50 (M14 melanoma): 0.578 µM
TGI (M14 melanoma): 2.12 µM
GI50 (MDA-MB-231 breast): 0.397 µM
TGI (MDA-MB-231 breast): 4.59 µM

COc1ccccc1/C=C/C(=O)c1sc(-c2cccnc2)nc1C
TGI (DMS 273 small cell lung): > 100 µM
TGI (RPMI-8226 leukemia): > 100 µM
TGI (MALME-3M melanoma): > 100 µM
TGI (DMS 114 small cell lung): > 100 µM
TGI (KM20L2 colon): > 100 µM
TGI (M19-MEL melanoma): > 100 µM
TGI (HCT-15 colon): > 100 µM

COc1ccc(OC)c(/C=C/c2nnc(Nc3ccc(Cl)cc3)o2)c1
GI50 (RPMI-8226 leukemia): > 100 µM
TGI (RPMI-8226 leukemia): > 100 µM
GI50 (NCI/ADR-RES ovarian): 7.62 µM
TGI (NCI/ADR-RES ovarian): 98.1 µM
GI50 (MALME-3M melanoma): 9.87 µM
TGI (MALME-3M melanoma): 52.4 µM
GI50 (HCT-15 colon): 34.1 µM
TGI (HCT-15 colon): > 100 µM
GI50 (M14 melanoma): 20.7 µM
TGI (M14 melanoma): > 100 µM
GI50 (MDA-MB-231 breast): 5.23 µM
TGI (MDA-MB-231 breast): 53.1 µM

O=C(O)/C(Cl)=C(\Cl)Nc1cccc(C(F)(F)F)c1
TGI (DMS 273 small cell lung): > 100 µM
TGI (MALME-3M melanoma): > 100 µM
TGI (DMS 114 small cell lung): > 100 µM
TGI (KM20L2 colon): > 100 µM
TGI (M19-MEL melanoma): > 100 µM
TGI (HCT-15 colon): > 100 µM
TGI (M14 melanoma): 33.4 µM

COc1cc(N2CCC(N3CCN(C)CC3)CC2)ccc1Nc1ncc(Cl)c(Nc2ccccc2P(C)(C)=O)n1
GI50 (RPMI-8226 leukemia): 3.89 µM
TGI (RPMI-8226 leukemia): 39.8 µM
GI50 (NCI/ADR-RES ovarian): 3 µM
GI50 (MALME-3M melanoma): 7.66 µM
TGI (MALME-3M melanoma): > 100 µM
GI50 (HCT-15 colon): 2.97 µM
TGI (HCT-15 colon): > 40.4 µM
GI50 (M14 melanoma): 2.12 µM
TGI (M14 melanoma): > 34 µM
GI50 (MDA-MB-231 breast): 0.625 µM
TGI (MDA-MB-231 breast): 31.7 µM

Oc1c(Br)cc(Br)cc1CN(Cc1cc(Br)cc(Br)c1O)C1CCCCC1
TGI (RPMI-8226 leukemia): > 100 µM
TGI (NCI/ADR-RES ovarian): > 100 µM
TGI (MALME-3M melanoma): 59.8 µM
TGI (HCT-15 colon): > 100 µM
TGI (M14 melanoma): > 100 µM
TGI (MDA-MB-231 breast): 72.4 µM
